Results: the Kinase Knowledgebase extract (Sharma et al. 2016)

Tests used:
PIK3CA (human) [1] = target: PIK3CA (human) (UniProt P42336); assay: Inhibition of A2780 Cell Proliferation
PIK3CA (human) [2] = target: PIK3CA (human) (UniProt P42336); assay: Inhibition of PIK3CA Kinase Activity

Sequence of PIK3CA (human) (P42336 whole entry, looked up): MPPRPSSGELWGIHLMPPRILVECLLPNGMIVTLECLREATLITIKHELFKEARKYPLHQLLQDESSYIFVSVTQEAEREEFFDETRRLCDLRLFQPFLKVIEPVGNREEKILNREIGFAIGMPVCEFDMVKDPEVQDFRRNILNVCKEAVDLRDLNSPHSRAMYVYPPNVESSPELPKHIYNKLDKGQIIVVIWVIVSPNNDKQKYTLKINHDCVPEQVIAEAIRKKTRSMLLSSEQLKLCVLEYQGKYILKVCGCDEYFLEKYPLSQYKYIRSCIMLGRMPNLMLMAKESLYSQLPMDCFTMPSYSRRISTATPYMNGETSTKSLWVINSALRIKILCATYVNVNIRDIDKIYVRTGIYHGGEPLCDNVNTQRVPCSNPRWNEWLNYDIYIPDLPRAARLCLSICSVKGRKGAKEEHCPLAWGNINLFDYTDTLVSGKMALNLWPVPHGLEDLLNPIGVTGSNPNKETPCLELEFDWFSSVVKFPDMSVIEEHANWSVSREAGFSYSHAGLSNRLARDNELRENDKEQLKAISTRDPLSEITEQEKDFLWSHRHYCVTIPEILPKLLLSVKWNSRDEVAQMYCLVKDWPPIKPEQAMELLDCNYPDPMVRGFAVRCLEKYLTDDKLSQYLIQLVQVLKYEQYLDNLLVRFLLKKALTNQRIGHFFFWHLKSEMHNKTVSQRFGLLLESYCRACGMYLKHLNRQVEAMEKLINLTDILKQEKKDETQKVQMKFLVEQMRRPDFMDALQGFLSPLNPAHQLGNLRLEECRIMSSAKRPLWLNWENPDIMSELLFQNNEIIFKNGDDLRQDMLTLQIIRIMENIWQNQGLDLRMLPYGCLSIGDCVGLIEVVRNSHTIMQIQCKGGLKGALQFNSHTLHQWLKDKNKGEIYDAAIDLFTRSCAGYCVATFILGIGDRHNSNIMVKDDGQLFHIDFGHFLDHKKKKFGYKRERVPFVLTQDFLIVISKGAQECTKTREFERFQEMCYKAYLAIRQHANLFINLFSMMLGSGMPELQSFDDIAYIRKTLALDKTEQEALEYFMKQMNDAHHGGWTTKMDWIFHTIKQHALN

| SMILES | EC50 (PIK3CA (human) [1]) | IC50 (PIK3CA (human) [2]) |
| --- | --- | --- |
| CC(=O)Nc1ccc(-c2c(NC(C)=O)nc3ccc(-c4cnc(N)c(C(F)(F)F)c4)cn23)cc1 | < 25000 nM | < 1000 nM |
| CC(=O)Nc1cn2cc(-c3cnc(N)c(-c4ccccc4F)c3)ccc2n1 | < 10000 nM | < 1000 nM |
| Nc1ncc(-c2ccc3nc(NC(=O)CCCN4CCOCC4)sc3c2)cn1 | < 10000 nM | < 1000 nM |
| CN(C)CCCC(=O)Nc1cn2nc(-c3cnc(N)c(C(F)(F)F)c3)ccc2n1 | < 1000 nM | < 1000 nM |
| CC(=O)Nc1cn2cc(-c3cnc(N)c(OC(F)F)c3)ccc2n1 | – | < 1000 nM |
| CC(C)(C)OC(=O)N1CC[C@@H](OCC(=O)Nc2cn3nc(-c4cnc(N)c(C(F)(F)F)c4)ccc3n2)C1 | < 1000 nM | < 1000 nM |
| CC(=O)Nc1cn2cc(-c3cnc(N)c(C(=O)NCCN4CCCC4)n3)ccc2n1 | < 1000 nM | < 1000 nM |
| CC(=O)Nc1cccc(-c2c(NC(C)=O)nc3ccc(-c4cnc(N)c(C(F)(F)F)c4)cn23)c1 | < 25000 nM | < 1000 nM |
| CC(=O)Nc1cn2cc(-c3cnc(N)c(C(=O)N4CCN(C(=O)OC(C)(C)C)CC4)c3)ccc2n1 | < 25000 nM | < 1000 nM |
| COCCOc1nc(-c2ccc3nc(NC(=O)CN4CCCCC4)cn3c2)cnc1N | < 10000 nM | < 1000 nM |
| CC(=O)Nc1cn2cc(-c3cnc(N)c(N4CCN(C)CC4)n3)ccc2n1 | < 10000 nM | < 1000 nM |
| CC(=O)Nc1cn2cc(-c3cnc(N)c(O[C@@H](C)C(F)(F)F)n3)cc(F)c2n1 | – | < 1000 nM |
| COc1cc(-c2ccc3nc(NC(C)=O)c(Br)n3c2)cnc1N | < 10000 nM | < 1000 nM |
| CC(C)(C)OC(=O)N1CC[C@H](OCC(=O)Nc2cn3nc(-c4cnc(N)c(C(F)(F)F)c4)ccc3n2)C1 | < 1000 nM | < 1000 nM |
| CC(=O)Nc1cn2cc(-c3cnc(N)c(OC4CNC4)n3)ccc2n1 | < 25000 nM | < 1000 nM |
| C[C@H](N)C(=O)Nc1cn2nc(-c3cnc(N)c(C(F)(F)F)c3)ccc2n1 | < 10000 nM | < 1000 nM |
| CC(=O)Nc1cn2cc(-c3cnc(N)c(Oc4ccc(N5CCN(C(C)C)CC5)cc4)n3)ccc2n1 | – | < 1000 nM |
| CC(=O)Nc1cn2cc(-c3cnc(N)c(Oc4ccc(N5CCN(C(C)=O)CC5)cc4)n3)ccc2n1 | < 10000 nM | < 1000 nM |
| CC(=O)Nc1cn2cc(-c3cnc(N)c(O[C@H](C)C(F)(F)F)n3)cc(F)c2n1 | – | < 1000 nM |
| CC(=O)Nc1cn2cc(-c3cnc(N)c(C=NN(C)C)c3)ccc2n1 | < 10000 nM | < 1000 nM |
| CC(=O)Nc1cn2cc(-c3cnc(N)cc3F)ccc2n1 | < 25000 nM | < 1000 nM |

| SMILES | EC50 (PIK3CA (human) [1]) | IC50 (PIK3CA (human) [2]) |
| --- | --- | --- |
| Nc1ncc(-c2ccc3nc(NC(=O)CN4CCCCC4)cn3c2)nc1OCC(F)(F)F | < 1000 nM | < 1000 nM |
| Nc1ncc(-c2ccc3nc(NC(=O)CO[C@H]4CCNC4)cn3n2)cc1C(F)(F)F | < 1000 nM | < 1000 nM |
| Nc1ccc(-c2ccc3nc(NC(=O)OCCN4CCCCC4)sc3c2)cn1 | – | < 1000 nM |
| CC(=O)Nc1nc2ccc(-c3ccc(NC4CCOCC4)nc3)cc2s1 | – | < 1000 nM |
| CC(=O)Nc1cn2cc(-c3cnc(N)c(Oc4cccc(F)c4)n3)cc(F)c2n1 | – | < 1000 nM |
| CC(=O)Nc1cn2cc(-c3cnc(N)c(S(=O)(=O)N4CCC(Oc5ccc(F)cc5)CC4)c3)ccc2n1 | – | < 1000 nM |
| COCCOc1nc(-c2ccc3nc(NC(C)=O)cn3n2)cnc1N | < 10000 nM | – |
| CCN1CCC(Oc2nc(-c3ccc4nc(NC(C)=O)cn4c3)cnc2N)CC1 | < 10000 nM | – |
| CC(=O)Nc1cn2cc(-c3cnc(N)c(OC4CCNCC4)n3)ccc2n1 | < 25000 nM | – |
| Nc1cccc(C(=O)Nc2nc3ccc(-c4cnc(N)c(C(F)(F)F)c4)cc3s2)n1 | – | < 10000 nM |
| CC(=O)Nc1nc2ccc(-c3cnc(NC(C)=O)c(C(F)(F)F)c3)cc2s1 | – | < 1000 nM |
| Nc1cc(C(=O)Nc2nc3ccc(-c4cnc(N)c(C(F)(F)F)c4)cc3s2)ccn1 | – | < 1000 nM |
| CC(=O)Nc1cn2cc(-c3cnc(N)nc3N)ccc2n1 | – | < 10000 nM |
| N#CN=C(N)NCCCC(=O)Nc1cn2nc(-c3cnc(N)c(C(F)(F)F)c3)ccc2n1 | – | < 1000 nM |
| CCN(CC)CCCc1c(NC(C)=O)nc2ccc(-c3cnc(N)c(C(F)(F)F)c3)cn12 | – | < 10000 nM |
| CC(=O)Nc1nc2ccc(-c3ccc(N)nc3)cn2c1Br | – | < 10000 nM |
| CC(=O)Nc1cn2nc(-c3cnc(N)c(OCC(F)(F)F)n3)ccc2n1 | < 10000 nM | – |
| CC(=O)Nc1nc2ccc(-c3ccc(NC4CCNCC4)nc3)cc2s1 | – | < 1000 nM |
| CC(=O)Nc1cn2c(-c3cnc(N)c(C(F)(F)F)c3)c(-c3cnc(N)c(C(F)(F)F)c3)ccc2n1 | – | ≥ 25000 nM |
| CC(=O)Nc1cn2nc(-c3cnc(N)c(-c4ccccc4Cl)c3)ccc2n1 | – | < 1000 nM |

Results, then the compound that gave them:

| EC50 (PIK3CA (human) [1]) | IC50 (PIK3CA (human) [2]) | SMILES |
| --- | --- | --- |
| < 10000 nM | < 1000 nM | Nc1ncc(-c2ccc3nc(NC(=O)N4CCCC4C(F)(F)F)cn3c2)cc1C(F)(F)F (stereo not drawn) |
| < 1000 nM | < 1000 nM | CC(C)(C)OC(=O)N1CCN(c2ccc(C(=O)Nc3cn4cc(-c5cnc(N)c(C(F)(F)F)c5)ccc4n3)cn2)CC1 |
| < 10000 nM | < 1000 nM | Nc1ncc(-c2ccc3nc(NC(=O)C4CNC4)cn3n2)cc1C(F)(F)F |
| < 10000 nM | < 1000 nM | CC(C)(C)OC(=O)N1CCCCC1CCC(=O)Nc1cn2nc(-c3cnc(N)c(C(F)(F)F)c3)ccc2n1 (stereo not drawn) |
| < 25000 nM | < 1000 nM | CC(=O)N1CCC[C@H]1C(=O)Nc1cn2cc(-c3cnc(N)c(Cl)c3)ccc2n1 |
| < 25000 nM | < 1000 nM | CC(C)(C)OC(=O)N1CCC[C@@H]1C(=O)Nc1cn2nc(-c3cnc(N)c(C(F)(F)F)c3)ccc2n1 |
| < 10000 nM | < 1000 nM | Nc1ncc(-c2ccc3nc(NC(=O)CCCn4ccnc4)cn3c2)cc1C(F)(F)F |
| – | < 1000 nM | Nc1ncc(-c2ccc3nc(NC(=O)[C@H]4CCC(=O)O4)cn3c2)cc1C(F)(F)F |
| < 10000 nM | < 1000 nM | Nc1ncc(-c2ccc3nc(NC(=O)[C@H]4CCCCN4)cn3c2)cc1C(F)(F)F |
| < 10000 nM | < 1000 nM | CC(=O)Nc1cn2cc(-c3cnc(N)c(C)c3)ccc2n1 |
| < 25000 nM | < 1000 nM | CC(=O)Nc1cn2cc(-c3cnc(N)c(CN4CCCC4)c3)ccc2n1 |
| < 1000 nM | < 1000 nM | Cc1cc(C(=O)Nc2cn3cc(-c4cnc(N)c(C(F)(F)F)c4)ccc3n2)no1 |
| < 25000 nM | < 1000 nM | CC(C)(C)OC(=O)N1CCC1C(=O)Nc1cn2cc(-c3cnc(N)c(OCC(F)(F)F)n3)ccc2n1 (stereo not drawn) |
| < 10000 nM | < 1000 nM | Nc1ncc(-c2ccc3nc(NC(=O)c4ccc(-n5ccnc5)cc4)cn3c2)cc1C(F)(F)F |
| < 10000 nM | < 1000 nM | CC(=O)Nc1cn2cc(-c3cnc(N)c(Cl)c3)ccc2n1 |
| – | < 10000 nM | CC(=O)Nc1cn2cc(-c3cnc(N)cc3C(F)(F)F)ccc2n1 |
| < 10000 nM | < 1000 nM | Nc1ncc(-c2ccc3nc(NC(=O)c4cccc(F)c4)cn3c2)cc1C(F)(F)F |
| < 10000 nM | < 1000 nM | Nc1ncc(-c2ccc3nc(NC(=O)c4ccc(N5CCNCC5)nc4)cn3c2)cc1C(F)(F)F |
| < 1000 nM | < 1000 nM | Nc1ncc(-c2ccc3nc(NC(=O)c4ccc(F)cc4)cn3c2)cc1C(F)(F)F |
| < 25000 nM | < 1000 nM | N#Cc1ccc(C(=O)Nc2cn3cc(-c4cnc(N)c(C(F)(F)F)c4)ccc3n2)cc1 |
| – | < 10000 nM | CC(=O)Nc1nc2ccc(-c3cnc(N)c(C(F)(F)F)c3)cn2c1C(C)=O |
| < 10000 nM | < 1000 nM | CCC(=O)Nc1cn2cc(-c3cnc(N)c(C(F)(F)F)c3)ccc2n1 |
| < 1000 nM | < 1000 nM | CC(=O)Nc1cn2cc(-c3cnc(N)c(-c4cccc(C(F)(F)F)c4)c3)ccc2n1 |

| EC50 (PIK3CA (human) [1]) | IC50 (PIK3CA (human) [2]) | SMILES |
| --- | --- | --- |
| < 1000 nM | < 1000 nM | CC(=O)Nc1cn2cc(-c3cnc(N)c(C=NNCC(F)(F)F)c3)ccc2n1 |
| < 10000 nM | < 1000 nM | Nc1ncc(-c2ccc3nc(NC(=O)c4cccc(Cl)c4)cn3c2)cc1C(F)(F)F |
| < 25000 nM | – | CC(=O)N1CCCC[C@H]1C(=O)Nc1cn2cc(-c3cnc(N)c(C(F)(F)F)c3)ccc2n1 |
| – | < 1000 nM | Nc1ncc(-c2ccc3nc(NC(=O)N4CCCC4c4ccco4)cn3c2)cc1C(F)(F)F (stereo not drawn) |
| – | < 1000 nM | Nc1ncc(-c2ccc3nc(NC(=O)[C@@H]4CCC(=O)O4)cn3c2)cc1C(F)(F)F |
| – | ≥ 25000 nM | CC(=O)Nc1cn2cc(-c3cnc(N)c(C(F)(F)F)c3)cc(C)c2n1 |
| < 10000 nM | – | NC(=O)[C@@H]1CCCN1C(=O)Nc1cn2cc(-c3cnc(N)c(C(F)(F)F)c3)ccc2n1 |
| – | < 1000 nM | Nc1ncc(-c2ccc3nc(NC(=O)N4CCCC4c4nccs4)cn3c2)cc1C(F)(F)F (stereo not drawn) |
| – | < 1000 nM | COc1ccc(C2CCCN2C(=O)Nc2cn3cc(-c4cnc(N)c(C(F)(F)F)c4)ccc3n2)cc1OC (stereo not drawn) |
| – | < 1000 nM | COc1ccccc1C1CCCN1C(=O)Nc1cn2cc(-c3cnc(N)c(C(F)(F)F)c3)ccc2n1 (stereo not drawn) |
| – | < 1000 nM | Nc1ncc(-c2ccc3nc(NC(=O)[C@@H](O)CCC(=O)O)cn3c2)cc1C(F)(F)F |
| – | < 1000 nM | Nc1ncc(-c2ccc3nc(NC(=O)N4CCCC4Cc4ccccn4)cn3c2)cc1C(F)(F)F (stereo not drawn) |
| – | < 10000 nM | CC(=O)N1CCCC[C@@H]1C(=O)Nc1cn2cc(-c3cnc(N)c(C(F)(F)F)c3)ccc2n1 |
| < 25000 nM | – | CC(C)(C)OC(=O)N1CCC1C(=O)Nc1cn2nc(-c3cnc(N)c(C(F)(F)F)c3)ccc2n1 (stereo not drawn) |
| < 25000 nM | – | CC(C)C(=O)Nc1cn2cc(-c3cnc(N)c(C(F)(F)F)c3)ccc2n1 |
| – | < 10000 nM | Nc1ncc(-c2ccc3nc(NC(=O)c4ccccc4C(=O)O)cn3c2)cc1C(F)(F)F |
| – | < 1000 nM | Nc1ncc(-c2ccc3nc(NC(=O)C4CCCC(=O)N4)cn3c2)cc1C(F)(F)F (stereo not drawn) |
| – | < 10000 nM | Nc1ncc(-c2ccc3nc(NC(=O)N4CCC[C@H]4C(=O)O)cn3c2)cc1C(F)(F)F |
| – | < 1000 nM | Nc1ncc(-c2ccc3nc(NC(=O)C4CCC(=O)N4)cn3c2)cc1C(F)(F)F (stereo not drawn) |
| < 10000 nM | – | Nc1ncc(-c2ccc3nc(NC(=O)[C@@H]4CCCCN4)cn3c2)cc1C(F)(F)F |
| – | < 1000 nM | Nc1ncc(-c2ccc3nc(NC(=O)c4cccc(-c5nn[nH]n5)c4)cn3c2)cc1C(F)(F)F |
| < 25000 nM | – | CNC(=O)[C@@H]1CCCN1C(=O)Nc1cn2cc(-c3cnc(N)c(C(F)(F)F)c3)ccc2n1 |
| – | < 1000 nM | Nc1ncc(-c2ccc3nc(NC(=O)C4CCC(=O)NC4)cn3c2)cc1C(F)(F)F (stereo not drawn) |
